# Source: PMC10675597, “Design, Synthesis, and Antisickling Investigation of a Thiazolidine Prodrug of TD-7 That Prolongs the Duration of Action of Antisickling Aromatic Aldehyde” (Pharmaceutics, 2023)
# Legend:
# [1] = In-vitro stability in different pH buffers (aldehyde peak absorbance at 349 nm); format: physicochemical; conditions: for Stability (absorbance of aldehyde peak at 349 nm): 1 mM, 37 °C
# Procedure: The stability of Pro-7 and the control TD-7 in different pH buffers (PBS buffer at pH 7.4, KCl·HCl buffer at pH 2.0, and Tris buffer at pH 8.0) was evaluated over time as previously reported. The ionic strength of all buffers was kept constant at 150 mM. A 200 mM stock solution of each compound was prepared using anhydrous DMSO. 1 mM solutions of each of the test compounds TD-7 and Pro-7 were prepared in duplicate for each of the three different pH buffers. […]
# An in-vitro time-dependent (1–96 h) stability study of Pro-7 was conducted to inform the formulation of the prodrug. The study was conducted at three different pHs: 2.0, 7.4 and 8.0, which mimic stomach, blood and intestinal pH conditions, respectively. The presence of TD-7 or the rate of appearance of TD-7 upon dissociation of Pro-7 was monitored at 349 nm spectrophotometrically.
# [2] = biological target: T1, Hb in human normal whole blood (Homo sapiens, UniProt P69905); experiment: In-vitro time-dependent Hb modification (Hb adduct formation), cation-exchange HPLC; format: cell-based; conditions: 2 mM; for %Hb Modification (Hb Adduct): normal whole blood 30% hematocrit
# T1 construct: normal whole blood (AA) was collected from adult donors; from tissue; host or cells: normal (AA) human whole blood from adult donors, 30% hematocrit
# Procedure: Pro-7 and the control TD-7 were used to conduct time-dependent Hb modification (Hb adduct formation) studies using normal whole blood as previously reported. A 200 mM stock solution of each compound was made with DMSO. In a 96-well 1.2 mL polypropylene deep-well plate (Thermo Scientific, Hampshire, UK), 2.0 mM concentration of each compound was added to 600 μL of whole blood (30% hematocrit), which was then incubated at 37 °C for 24 h with shaking (at 140 rpm). A control sample was supplemented only with an equivalent volume of DMSO. At different time points (0–24 h), 50 μL aliquots of this mixture were withdrawn from each well using a multichannel pipette and added to respective tubes containing 50 μL of sodium cyanoborohydride (NaBH3CN) and sodium borohydride (NaBH4) mixture (1:1 v/v 50 mM stock) to terminate the Schiff-base reaction, fix the Schiff-base Hb adducts and reduce the free reactive aldehyde. After mixing, the tubes were stored immediately at −80 °C until ready for analysis using cation-exchange HPLC (Hitachi D-7000 Series, Hitachi Instruments, Inc. San Jose, CA, USA) for Hb-compound adduct formation. The observed Hb adducts in %Hb modification were plotted as a function of time (h).
# (§1) Human normal whole blood was used to assess the degree of Hb modification and Hb oxygen affinity (P50 shift), while sickle blood was used to investigate RBC sickling inhibition. Pro-7 and the positive control TD-7 were incubated with normal whole blood suspensions. […] For the sickling inhibition study, Pro-7 and the positive control TD-7 were incubated with SS blood suspensions under hypoxic conditions (2.5% O2/97.5% N2), and aliquot blood samples were drawn at three time points (1, 3 and 6 h) and used for assessing RBC morphology. The results summarized in Table 1 and Figure 4A–C show time-dependent effects for all three pharmacodynamic activities. […] Even at the end of the 24-h experiment, Pro-7 activity was still increasing.
# [3] = biological target: T1, Hb in human normal whole blood; experiment: In-vitro time-dependent oxygen equilibrium study (P50 shift); format: cell-based; conditions: 2 mM; for %Hb O2 Affinity (P50 Shift): normal whole blood 30% hematocrit
# Procedure: An oxygen equilibrium curve study was conducted in a time-dependent manner to determine the effect and duration of Pro-7 on Hb affinity for oxygen (P50 shift) following standard procedure. Pro-7, along with the controls TD-7 and DMSO were used for the studies with normal whole blood sample (30% hematocrit). Each compound was incubated with the blood at a final concentration of 2 mM, and aliquot samples were taken at 1, 3, 6, 12 and 24 h and further incubated in IL 237 tonometer (Instrumentation Laboratories, Inc., Lexington, MA, USA) for 10 min at 37 °C, and allowed to equilibrate at oxygen tensions 6, 20, and 40 mmHg. The samples were then aspirated into a Radiometer ABL 800 Automated Blood Gas Analyzer (Copenhagen, Denmark ) to determine the pH, partial pressure of CO2 (pCO2), partial pressure of oxygen (pO2), and Hb oxygen saturation values (SO2). The measured values of pO2 (mmHg) and SO2 at each pO2 value were then subjected to a non-linear regression analysis using the program Scientist (Micromath, Salt Lake City, UT, USA) to estimate P50 as a measure of Hb oxygen affinity as previously reported.
# as §1
# [4] = tested on: SS cells (homozygous sickle cell blood); experiment: In-vitro time-dependent RBC sickling inhibition under hypoxia; format: cell-based, human; conditions: 2 mM; for inhibition at 2000 µM: Homo sapiens, SS cells 20% hematocrit, hypoxia (4% oxygen/96% nitrogen)
# Procedure: Red blood cell sickling inhibition studies with Pro-7 and the control TD-7 was conducted using previously reported procedure. Blood suspensions from subjects with homozygous SCD (hematocrit 20%) were incubated under air in the absence or presence of test compounds at 37 °C for 1 h to ensure that binding has attained equilibrium. […] Aliquot samples were fixed with 2% glutaraldehyde solution without exposure to air, and then subjected to microscopic morphological analysis.
# Human normal whole blood was used to assess the degree of Hb modification and Hb oxygen affinity (P50 shift), while sickle blood was used to investigate RBC sickling inhibition. […] The results summarized in Table 1 and Figure 4A–C show time-dependent effects for all three pharmacodynamic activities. […] Even at the end of the 24-h experiment, Pro-7 activity was still increasing.
# T1 sequence (P69905 2-142 limits assumed): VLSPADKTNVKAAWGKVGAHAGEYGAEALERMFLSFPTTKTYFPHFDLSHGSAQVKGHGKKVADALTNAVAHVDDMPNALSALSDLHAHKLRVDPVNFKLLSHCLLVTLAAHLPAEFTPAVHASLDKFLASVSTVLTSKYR
# T1 sequence (P68871 2-147 partner limits assumed): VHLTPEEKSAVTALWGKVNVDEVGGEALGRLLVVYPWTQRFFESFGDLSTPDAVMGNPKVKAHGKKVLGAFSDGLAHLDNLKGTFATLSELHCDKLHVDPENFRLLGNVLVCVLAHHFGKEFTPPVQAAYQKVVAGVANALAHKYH
smiles,measurement,setting,value
"COc1ccc(OCc2cccc(CO)n2)c(C=O)c1 [TD-7, 2-((6-(hydroxymethyl)pyridin-2-yl)methoxy)-5-methoxybenzaldehyde]",Stability (absorbance of aldehyde peak at 349 nm),"[1]; pH 2.0, 0 hr",3.23 ± 0.08
same,stability in buffer (in words),"[1]; pH 2.0, 7.4 and 8.0, 96 h experiment",showed stability at all three pHs
same,Stability (absorbance of aldehyde peak at 349 nm),"[1]; pH 2.0, 1 hr",3.02 ± 0.00
same,Stability (absorbance of aldehyde peak at 349 nm),"[1]; pH 2.0, 2 hr",3.03 ± 0.04
same,Stability (absorbance of aldehyde peak at 349 nm),"[1]; pH 2.0, 3 hr",2.97 ± 0.04
same,Stability (absorbance of aldehyde peak at 349 nm),"[1]; pH 2.0, 6 hr",2.98 ± 0.01
same,Stability (absorbance of aldehyde peak at 349 nm),"[1]; pH 2.0, 24 hr",2.93 ± 0.01
same,Stability (absorbance of aldehyde peak at 349 nm),"[1]; pH 7.4, 0 hr",3.05 ± 0.10
same,Stability (absorbance of aldehyde peak at 349 nm),"[1]; pH 7.4, 1 hr",2.97 ± 0.01
same,Stability (absorbance of aldehyde peak at 349 nm),"[1]; pH 7.4, 2 hr",2.95 ± 0.03
same,Stability (absorbance of aldehyde peak at 349 nm),"[1]; pH 7.4, 3 hr",3.09 ± 0.06
same,Stability (absorbance of aldehyde peak at 349 nm),"[1]; pH 7.4, 6 hr",2.92 ± 0.02
same,Stability (absorbance of aldehyde peak at 349 nm),"[1]; pH 7.4, 24 hr",2.98 ± 0.07
same,Stability (absorbance of aldehyde peak at 349 nm),"[1]; pH 7.4, 28 hr",2.90 ± 0.04
same,Stability (absorbance of aldehyde peak at 349 nm),"[1]; pH 7.4, 48 hr",3.00 ± 0.05
same,Stability (absorbance of aldehyde peak at 349 nm),"[1]; pH 7.4, 56 hr",2.98 ± 0.08
same,Stability (absorbance of aldehyde peak at 349 nm),"[1]; pH 7.4, 72 hr",2.92 ± 0.05
same,Stability (absorbance of aldehyde peak at 349 nm),"[1]; pH 7.4, 96 hr",2.95 ± 0.03
same,Stability (absorbance of aldehyde peak at 349 nm),"[1]; pH 8.0, 0 hr",1.82 ± 0.05
same,Stability (absorbance of aldehyde peak at 349 nm),"[1]; pH 8.0, 1 hr",1.79 ± 0.00
same,Stability (absorbance of aldehyde peak at 349 nm),"[1]; pH 8.0, 2 hr",1.73 ± 0.01
same,Stability (absorbance of aldehyde peak at 349 nm),"[1]; pH 8.0, 3 hr",1.73 ± 0.01
same,Stability (absorbance of aldehyde peak at 349 nm),"[1]; pH 8.0, 6 hr",1.71 ± 0.01
same,Stability (absorbance of aldehyde peak at 349 nm),"[1]; pH 8.0, 24 hr",1.73 ± 0.02
same,Stability (absorbance of aldehyde peak at 349 nm),"[1]; pH 8.0, 28 hr",1.70 ± 0.02
same,Stability (absorbance of aldehyde peak at 349 nm),"[1]; pH 8.0, 48 hr",1.68 ± 0.03
same,Stability (absorbance of aldehyde peak at 349 nm),"[1]; pH 8.0, 72 hr",1.73 ± 0.03
same,Stability (absorbance of aldehyde peak at 349 nm),"[1]; pH 8.0, 96 hr",1.68 ± 0.04
same,%Hb Modification (Hb Adduct),[2]; 0 h,0.00 ± 0.00%
same,"time of peak effect, Hb modification",[2]; normal whole blood,12 h
same,%Hb Modification (Hb Adduct),[2]; 1 h,25.20 ± 1.20%
same,%Hb Modification (Hb Adduct),[2]; 2 h,23.40 ± 3.50%
same,%Hb Modification (Hb Adduct),[2]; 4 h,41.70 ± 4.30%
same,%Hb Modification (Hb Adduct),[2]; 8 h,47.30 ± 4.70%
same,%Hb Modification (Hb Adduct),[2]; 12 h,48.30 ± 0.50%
same,%Hb Modification (Hb Adduct),[2]; 24 h,43.30 ± 1.90%
same,"time of peak effect, Hb oxygen affinity",[3]; normal whole blood,peaked quickly at the first hour
same,%Hb O2 Affinity (P50 Shift),[3]; 1 h,69.26%
same,%Hb O2 Affinity (P50 Shift),[3]; 3 h,67.42%
same,%Hb O2 Affinity (P50 Shift),[3]; 6 h,49.06%
same,%Hb O2 Affinity (P50 Shift),[3]; 12 h,49.58%
same,%Hb O2 Affinity (P50 Shift),[3]; 24 h,48.56%
same,"time of peak effect, RBC sickling inhibition","[4]; SS blood, hypoxia",peaked quickly at the first hour
same,inhibition at 2000 µM,[4]; 1 h,76.3%
same,inhibition at 2000 µM,[4]; 3 h,59.6%
same,inhibition at 2000 µM,[4]; 6 h,54%
